Source: US11026944B2, “Compositions and methods for treating insomnia” (Eisai R&D Management Co., Ltd., priority 2014, dated 2021)
Read-outs that look alike come from different tables or passages of the source.

Tests used:
[1] = Single daily dose PK in human subjects (summary statements); format: in vivo; details: plasma, oral; for Cmax: read-out: mean maximum plasma concentration (Cmax); for half-life: read-out: mean t1/2 (converted); for Tmax: read-out: mean time to maximum plasma concentration (tmax)
subjects with insomnia = assay: 201 Study: Karolinska Sleepiness Scale (next-day residual sleepiness); format: in vivo, human
Experimental: All subjects returned to the clinic on Day-1 for Baseline Period procedures. They remained in the clinic until Day 3. Morning assessments on Day 1 provided the Baseline values for the KSS, the Digit Symbol Substitution Test (DSST), and the Reaction Time Index (RTI). Assessments at 6 hours after waketime provided the Baseline values for the Waking Function Battery (WFB), and the Profile of Mood States-Brief (POMS-B). Subjects were then randomized to receive 1 of 6 doses of compound A or placebo for the next 15 days. Study drugs were tablets containing compound A-matched placebo or compound A of 1 mg, 2.5 mg, 5 mg, or 10 mg and to be ingested 30 minutes before the median habitual bedtime calculated from their Sleep Diary responses during the Screening Period. An 8-hour PSG, starting at the same bedtime as used for the screening and Baseline PSG nights, was recorded on the first 2 treatment nights (Days 1 and 2). The Sleep Diary continued to be completed each day in the clinic, and assessments of insomnia severity (ISI), next-day residual effects (KSS, DSST, and RTI) were conducted while subjects were in the clinic. On specified study days, plasma concentrations of compound A were assessed while subjects were in the clinic in the morning after awakening and at trough just before dosing.
The KSS was used to measure next-day residual effects at prespecified timepoints. In this test, subjects rate their sleepiness using the KSS, a 9-point verbally anchored scale. Categories and scores range from“extremely alert” (score=1), “alert” (3), “neither alert nor sleepy” (5), “sleepy-but no difficulty remaining awake” (7), to “extremely sleepy-fighting sleep” (9). The key outcome parameter for the KSS was the score from 1 to 9.
Each dose was assessed for next-day residual sleepiness using the KSS. A mean difference of change from baseline in KSS at 1 hour after waketime on Day 2 and Day 3 of less than 4 units was incorporated into the utility function. A dose of compound A was considered to have an acceptable KSS at Day 15 and Day 16 if the mean difference of change from baseline in KSS at 1 hour after waketime on Day 15 and Day 16 at this dose relative to placebo was less than 4 units. Operationally, acceptable KSS for Day 15 and Day 16 was defined as the […] boundary of a 90% confidence interval (CI) being less than 4 units (of the mean difference of change from baseline in KSS at 1 hour after waketime at this dose relative to placebo).
In Table 6, “Baseline” was defined as the time-matched value on Day 1. “LS Means Diff” refers to the differences between LS Means of Placebo and each compound A dose, “95% CI” means to 95% CI of LS Means Diff. “p-value” was analyzed using analysis of covariance (ANCOVA) with baseline as a covanate.

[2] = 1 hour post waketime, 1 mg nightly
[3] = 1 hour post waketime, 2.5 mg nightly
[4] = 1 hour post waketime, 5 mg nightly
[5] = 1 hour post waketime, 10 mg nightly
[6] = 1 hour post waketime, 15 mg nightly
[7] = 1 hour post waketime, 25 mg nightly

Cc1ncc(OC[C@@]2(c3cccc(F)c3)C[C@H]2C(=O)Nc2ccc(F)cn2)c(C)n1 [Compound A, (1R,2 S)-2-(((2,4-dimethylpyrimidin-5-yl)oxy)methyl)-2-(3-fluorophenyl)-N-(5-fluoropyridin-2-yl) cyclopropanecarboxamide]
AUC(0-t) ([1]; 2.5 mg, single 2.5 mg daily dose, read-out: mean AUC(0-24)): 57 to 60 ng·h/mL | AUC(0-t) ([1]; 2.5 mg, single 2.5 mg daily dose, read-out: mean AUC(0-t)): 80 to 95 ng·h/mL | AUC(0-t) ([1]; 5 mg, single 5 mg daily dose, read-out: mean AUC(0-24)): 95 to 110 ng·h/mL | AUC(0-t) ([1]; 5 mg, single 5 mg daily dose, read-out: mean AUC(0-t)): ~128 ng·h/mL | AUC(0-t) ([1]; 10 mg, single 10 mg daily dose, read-out: mean AUC(0-24)): 160 to 190 ng·h/mL | AUC(0-t) ([1]; 10 mg, single 10 mg daily dose, read-out: mean AUC(0-t)): 280 to 510 ng·h/mL | AUC(0-inf) ([1]; single 2.5 mg daily dose): 80 to 103 ng·h/mL | Cmax ([1]; single 2.5 mg daily dose): 10 to 18 ng/mL | half-life ([1]; single 2.5 mg daily dose): 30 to 37 h | Tmax ([1]; single 2.5 mg daily dose): 1 to 2 h | AUC(0-inf) ([1]; single 5 mg daily dose): ~150 ng·h/mL | Cmax ([1]; single 5 mg daily dose): 19 to 23 ng/mL | half-life ([1]; single 5 mg daily dose): ~31 h | Tmax ([1]; single 5 mg daily dose): 1 to 2 h | AUC(0-inf) ([1]; single 10 mg daily dose): 310 to 530 ng·h/mL | Cmax ([1]; single 10 mg daily dose): 30 to 58 ng/mL | half-life ([1]; single 10 mg daily dose): 56 to 60 h | Tmax ([1]; single 10 mg daily dose): 1 to 3.25 h | KSS vs placebo, significance (subjects with insomnia; 15 min post waketime timepoints): No statistically significant differences | Change from Baseline in KSS, Mean of Days 2 & 3: LS Means Diff vs placebo (subjects with insomnia; [2]): 0.02 | Change from Baseline in KSS, Mean of Days 2 & 3: Mean (subjects with insomnia; [2]): −0.2 | Change from Baseline in KSS, Mean of Days 15 & 16: LS Means Diff vs placebo (subjects with insomnia; [2]): 0.51 | Change from Baseline in KSS, Mean of Days 15 & 16: Mean (subjects with insomnia; [2]): 0.3 | Change from Baseline in KSS, Mean of Days 2 & 3: LS Means Diff vs placebo (subjects with insomnia; [3]): −0.06 | Change from Baseline in KSS, Mean of Days 2 & 3: Mean (subjects with insomnia; [3]): −0.3 | Change from Baseline in KSS, Mean of Days 15 & 16: LS Means Diff vs placebo (subjects with insomnia; [3]): 0.13 | Change from Baseline in KSS, Mean of Days 15 & 16: Mean (subjects with insomnia; [3]): −0.1 | Change from Baseline in KSS, Mean of Days 2 & 3: LS Means Diff vs placebo (subjects with insomnia; [4]): 0.20 | Change from Baseline in KSS, Mean of Days 2 & 3: Mean (subjects with insomnia; [4]): −0.1 | Change from Baseline in KSS, Mean of Days 15 & 16: LS Means Diff vs placebo (subjects with insomnia; [4]): 0.43 | Change from Baseline in KSS, Mean of Days 15 & 16: Mean (subjects with insomnia; [4]): 0.1 | Change from Baseline in KSS, Mean of Days 2 & 3: LS Means Diff vs placebo (subjects with insomnia; [5]): 0.16 | Change from Baseline in KSS, Mean of Days 2 & 3: Mean (subjects with insomnia; [5]): 0.0 | Change from Baseline in KSS, Mean of Days 15 & 16: LS Means Diff vs placebo (subjects with insomnia; [5]): 0.01 | Change from Baseline in KSS, Mean of Days 15 & 16: Mean (subjects with insomnia; [5]): −0.1 | Change from Baseline in KSS, Mean of Days 2 & 3: LS Means Diff vs placebo (subjects with insomnia; [6]): 0.32 | Change from Baseline in KSS, Mean of Days 2 & 3: Mean (subjects with insomnia; [6]): 0.1 | Change from Baseline in KSS, Mean of Days 15 & 16: LS Means Diff vs placebo (subjects with insomnia; [6]): 0.38 | Change from Baseline in KSS, Mean of Days 15 & 16: Mean (subjects with insomnia; [6]): 0.1 | Change from Baseline in KSS, Mean of Days 2 & 3: LS Means Diff vs placebo (subjects with insomnia; [7]): 0.47 | Change from Baseline in KSS, Mean of Days 2 & 3: Mean (subjects with insomnia; [7]): 0.4 | Change from Baseline in KSS, Mean of Days 15 & 16: LS Means Diff vs placebo (subjects with insomnia; [7]): 0.68 | Change from Baseline in KSS, Mean of Days 15 & 16: Mean (subjects with insomnia; [7]): 0.6 | KSS LS mean differences vs placebo, significance (subjects with insomnia; 1 hour post waketime, Mean of Days 2/3, 1 mg to 15 mg): not statistically significant | KSS vs placebo, significance (subjects with insomnia; 2 hour post waketime, mean of Days 2/3, 15 mg and 25 mg): statistical significance | KSS vs placebo, significance (subjects with insomnia; 2 hour post waketime, mean of Days 15/16, 25 mg): statistically significant
